# Target: PD-1/PD-L1 (Homo sapiens (Human), UniProt Q9NZQ7)
# Test: PD-1/PD-L1 Homogeneous Time-Resolved Fluorescence (HTRF) Binding Assay
# Conditions: recombinant human PD-1 (3 nM) and PD-L1 (10 nM), 25° C., PBS pH 7.4
# Outline: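 Fc-tagged human PD-1 (25-167, 3 nM) and His-tagged PD-L1 (19-238, 10 nM) preincubated with inhibitor 40 min in PBS pH 7.4, 0.05% Tween-20, 0.1% BSA, 1% DMSO, 25 °C. Binding detected by HTRF (Eu anti-IgG/APC anti-His, 665/620 nm) after 60 min; IC50 from percent control activity.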
# Sequence of PD-1/PD-L1 (Q9NZQ7 19-238): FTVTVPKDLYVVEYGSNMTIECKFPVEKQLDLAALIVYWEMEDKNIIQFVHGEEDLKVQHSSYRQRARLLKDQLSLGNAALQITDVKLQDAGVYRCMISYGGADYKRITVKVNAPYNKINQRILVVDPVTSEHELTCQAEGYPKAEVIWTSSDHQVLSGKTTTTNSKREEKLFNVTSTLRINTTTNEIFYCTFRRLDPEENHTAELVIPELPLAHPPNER
row,IC50,SMILES
1,≤ 10 nM,"Cc1c(-c2nc3c(o2)CCNC3)cccc1-c1cccc(-c2nc3cc(CN4CC[C@@H](C(=O)O)C4)cc(Cl)c3o2)c1C [Example 74, (R)-1-((7-chloro-2-(2,2′-dimethyl-3′-(4,5,6,7-tetrahydrooxazolo[4,5-c]pyridin-2-yl)-[1,1′-biphenyl]-3-yl)benzo[d]oxazol-5-yl)methyl)pyrrolidine-3-carboxylic acid]"
2,≤ 10 nM,"Cc1c(Nc2nccc3cc(CN4CC[C@@H](O)C4)cnc23)cccc1-c1cccc(-c2nc3cc(CN4CC[C@@H](CC(=O)O)C4)cc(C#N)c3o2)c1C [Example 174, 2-((S)-1-((7-cyano-2-(3′-(3-(((R)-3-hydroxypyrrolidin-1-yl)methyl)-1,7-naphthyridin-8-ylamino)-2,2′-dimethylbiphenyl-3-yl)benzo[d]oxazol-5-yl)methyl)pyrrolidin-3-yl)acetic acid]"
3,≤ 10 nM,"Cc1c(-c2nc3cc(CN4CC[C@@H](C(=O)O)C4)cc(Cl)c3o2)cccc1-c1cccc(N2CCC(N[C@H]3C[C@@H](O)C3)CC2)c1Cl [Example 45, (R)-1-((7-chloro-2-(2′-chloro-3′-(4-((1s,3s)-3-hydroxycyclobutylamino)piperidin-1-yl)-2-methylbiphenyl-3-yl)benzo[d]oxazol-5-yl)methyl)pyrrolidine-3-carboxylic acid]"
4,≤ 10 nM,"Cc1c(-c2nc3cc(CN4CC[C@@H](O)C4)cc(C#N)c3o2)cccc1-c1cccc(NC(=O)c2nc3c(n2C)CC(C)(C(=O)O)N(C)C3)c1Cl (stereo partly drawn) [Example 165, 2-(2-chloro-3′-(7-cyano-5-(((R)-3-hydroxypyrrolidin-1-yl)methyl)benzo[d]oxazol-2-yl)-2′-methylbiphenyl-3-ylcarbamoyl)-1,5,6-trimethyl-4,5,6,7-tetrahydro-1H-imidazo[4,5-c]pyridine-6-carboxylic acid]"
5,≤ 10 nM,"Cc1c(-c2nc3cc(CN4CC[C@@H](C(=O)O)C4)cc(Cl)c3o2)cccc1-c1cccc(Nc2nccc3cc(CN4CC[C@@H](O)C4)cnc23)c1Cl [Example 82, (R)-1-((7-chloro-2-(2′-chloro-3′-(3-(((R)-3-hydroxypyrrolidin-1-yl)methyl)-1,7-naphthyridin-8-ylamino)-2-methylbiphenyl-3-yl)benzo[d]oxazol-5-yl)methyl)pyrrolidine-3-carboxylic acid]"
6,≤ 10 nM,"Cc1c(Nc2nccc3cc(CN4CC[C@H](O)C4)cnc23)cccc1-c1cccc(-c2nc3cc(CN4CC[C@H](C(=O)O)C4)cc(Cl)c3o2)c1C [Example 17, (S)-1-((7-chloro-2-(3′-(3-(((S)-3-hydroxypyrrolidin-1-yl)methyl)-1,7-naphthyridin-8-ylamino)-2,2′-dimethylbiphenyl-3-yl)benzo[d]oxazol-5-yl)methyl)pyrrolidine-3-carboxylic acid]"
7,≤ 10 nM,"Cc1c(-c2nc3cc(CN4CC[C@@H](C(=O)O)C4)cc(C#N)c3o2)cccc1-c1cccc(-c2nc3c(s2)CN(C(=O)CNC(C)C)C3)c1C [Example 110, (R)-1-((7-cyano-2-(3′-(5-(2-(isopropylamino)acetyl)-5,6-dihydro-4H-pyrrolo[3,4-d]thiazol-2-yl)-2,2′-dimethylbiphenyl-3-yl)benzo[d]oxazol-5-yl)methyl)pyrrolidine-3-carboxylic acid]"
8,≤ 10 nM,"Cc1c(-c2nc3c(o2)CCNC3)cccc1-c1cccc(-c2nc3cc(CN4CC[C@H](C(=O)O)C4)cc(Cl)c3o2)c1C [Example 76, (S)-1-((7-chloro-2-(2,2′-dimethyl-3′-(4,5,6,7-tetrahydrooxazolo[4,5-c]pyridin-2-yl)-[1,1′-biphenyl]-3-yl)benzo[d]oxazol-5-yl)methyl)pyrrolidine-3-carboxylic acid]"
9,≤ 10 nM,"Cc1c(Nc2nccc3cc(CN4CC[C@@H](O)C4)cnc23)cccc1-c1cccc(-c2nc3cc(CN4CC[C@@H](C(=O)O)C4)cc(C#N)c3o2)c1Cl [Example 168, (R)-1-((2-(2-chloro-3′-(3-(((R)-3-hydroxypyrrolidin-1-yl)methyl)-1,7-naphthyridin-8-ylamino)-2′-methylbiphenyl-3-yl)-7-cyanobenzo[d]oxazol-5-yl)methyl)pyrrolidine-3-carboxylic acid]"
10,≤ 10 nM,"Cc1c(-c2nc3cc(CN4CC[C@@H](C(=O)O)C4)cc(C#N)c3o2)cccc1-c1cccc(NC(=O)c2nc3c(n2C)CC(C)NC3)c1Cl (stereo partly drawn) [Example 159, (3R)-1-((2-(2′-chloro-3′-(1,6-dimethyl-4,5,6,7-tetrahydro-1H-imidazo[4,5-c]pyridine-2-carboxamido)-2-methylbiphenyl-3-yl)-7-cyanobenzo[d]oxazol-5-yl)methyl)pyrrolidine-3-carboxylic acid]"
11,≤ 10 nM,"Cc1c(-c2nc3cc(CN4CC[C@@H](O)C4)cc(C#N)c3o2)cccc1-c1cccc(NC(=O)c2nc3c(n2C)CCN(CC2CCC(C)(C(=O)O)CC2)C3)c1Cl (single isomer, unassigned; peak 2) [Example 269]"
12,≤ 10 nM,"Cc1c(-c2nc3cc(CN4CC[C@H](C(=O)O)C4)cc(Cl)c3o2)cccc1-c1cccc(Nc2nccc3cc(CN4CC[C@H](O)C4)cnc23)c1Cl [Example 32, (S)-1-((7-chloro-2-(2′-chloro-3′-(3-(((S)-3-hydroxypyrrolidin-1-yl)methyl)-1,7-naphthyridin-8-ylamino)-2-methylbiphenyl-3-yl)benzo[d]oxazol-5-yl)methyl)pyrrolidine-3-carboxylic acid]"
13,≤ 10 nM,"Cc1c(Nc2nccc3cc(CN4CC[C@](C)(O)C4)cnc23)cccc1-c1cccc(-c2nc3cc(CN4CC[C@@H](C(=O)O)C4)cc(C#N)c3o2)c1C [Example 138, (R)-1-((7-cyano-2-(3′-(3-(((S)-3-hydroxy-3-methylpyrrolidin-1-yl)methyl)-1,7-naphthyridin-8-ylamino)-2,2′-dimethylbiphenyl-3-yl)benzo[d]oxazol-5-yl)methyl)pyrrolidine-3-carboxylic acid]"
14,≤ 10 nM,"Cc1c(Nc2ncnc3cc(CN4CC[C@@H](O)C4)cnc23)cccc1-c1cccc(-c2nc3cc(CN4CC[C@@H](C(=O)O)C4)cc(C#N)c3o2)c1C [Example 139, (R)-1-((7-cyano-2-(3′-(7-(((R)-3-hydroxypyrrolidin-1-yl)methyl)pyrido[3,2-d]pyrimidin-4-ylamino)-2,2′-dimethylbiphenyl-3-yl)benzo[d]oxazol-5-yl)methyl)pyrrolidine-3-carboxylic acid]"
15,≤ 10 nM,"Cc1c(Nc2nccc3cc(CN4CC[C@@H](O)C4)cnc23)cccc1-c1cccc(-c2nc3cc(CN4CC[C@H](C(=O)O)C4)cc(Cl)c3o2)c1C [Example 19, (S)-1-((7-chloro-2-(3′-(3-(((R)-3-hydroxypyrrolidin-1-yl)methyl)-1,7-naphthyridin-8-ylamino)-2,2′-dimethylbiphenyl-3-yl)benzo[d]oxazol-5-yl)methyl)pyrrolidine-3-carboxylic acid]"
16,≤ 10 nM,"CCN1CCc2c(nc(C(=O)Nc3cccc(-c4cccc(-c5nc6cc(CN7CC[C@@H](C(=O)O)C7)cc(C#N)c6o5)c4C)c3Cl)n2C)C1 [Example 143, (R)-1-((2-(2′-chloro-3′-(5-ethyl-1-methyl-4,5,6,7-tetrahydro-1H-imidazo[4,5-c]pyridine-2-carboxamido)-2-methyl-[1,1′-biphenyl]-3-yl)-7-cyanobenzo[d]oxazol-5-yl)methyl)pyrrolidine-3-carboxylic acid]"
17,≤ 10 nM,"Cc1c(-c2nc3cc(CN4CCC(C(=O)O)CC4)cc(C#N)c3o2)cccc1-c1cccc(NC(=O)c2nc3c(n2C)CC(C)NC3)c1Cl (stereo not shown) [Example 164, 1-((2-(2′-chloro-3′-(1,6-dimethyl-4,5,6,7-tetrahydro-1H-imidazo[4,5-c]pyridine-2-carboxamido)-2-methylbiphenyl-3-yl)-7-cyanobenzo[d]oxazol-5-yl)methyl)piperidine-4-carboxylic acid]"
18,≤ 10 nM,"Cc1c(-c2nc3c(o2)CN(C(=O)CN(C)C)C3)cccc1-c1cccc(-c2nc3cc(CN4CC(C(=O)O)C4)cc(C#N)c3o2)c1C [Example 123, 1-((7-cyano-2-(3′-(5-(dimethylglycyl)-5,6-dihydro-4H-pyrrolo[3,4-d]oxazol-2-yl)-2,2′-dimethyl-[1,1′-biphenyl]-3-yl)benzo[d]oxazol-5-yl)methyl)azetidine-3-carboxylic acid]"
19,≤ 10 nM,"CCN(C)CC(=O)N1Cc2nc(-c3cccc(-c4cccc(-c5nc6cc(CN7CC[C@@](C)(C(=O)O)C7)cc(C#N)c6o5)c4C)c3C)sc2C1 [Example 218, (R)-1((7-cyano-2-(3′-(5-(2-(ethyl(methyl)amino)acetyl)-5,6-dihydro-4H-pyrrolo[3,4-d]thiazol-2-yl)-2,2′-dimethylbiphenyl-3-yl)benzo[d]oxazol-5-yl)methyl)-3-methylpyrrolidine-3-carboxylic acid]"
20,≤ 10 nM,"Cc1c(-c2nc3cc(CN4CCC(C(=O)O)CC4)cc(C#N)c3o2)cccc1-c1cccc(Nc2nccc3cc(CN4CC[C@@H](O)C4)cnc23)c1Cl [Example 188, (R)-1-((2-(2′-chloro-3′-(3-((3-hydroxypyrrolidin-1-yl)methyl)-1,7-naphthyridin-8-ylamino)-2-methylbiphenyl-3-yl)-7-cyanobenzo[d]oxazol-5-yl)methyl) piperidine-4-carboxylic acid]"
21,≤ 10 nM,"Cc1c(Nc2nccc3cc(C4CCCN4)cnc23)cccc1-c1cccc(-c2nc3cc(CN4CC[C@@H](C(=O)O)C4)cc(C#N)c3o2)c1C (single isomer, unassigned) [Example 99]"

row,SMILES,IC50
1,"Cc1c(Nc2nccc3cc(CN4CC[C@H](O)C4)cnc23)cccc1-c1cccc(-c2nc3cc(CN4CC[C@H](C(=O)O)C4)cc(C#N)c3o2)c1C [Example 25, (S)-1-((7-cyano-2-(3′-(3-(((S)-3-hydroxypyrrolidin-1-yl)methyl)-1,7-naphthyridin-8-ylamino)-2,2′-dimethylbiphenyl-3-yl)benzo[d]oxazol-5-yl)methyl)pyrrolidine-3-carboxylic acid]",≤ 10 nM

# From patent US10308644B2, “Heterocyclic compounds as immunomodulators” (Incyte Corporation, priority 2016, dated 2019)
